The source of these data is ChEMBL document CHEMBL1136032, “Remarkable influence of the aromatic substructure in 9-methoxystrobilurin derivatives on their antifungal activity” (Bioorg Med Chem Lett, 2002).

pIC50: −log10 of the molar value. Active and inactive are the calls of the source. The calls are words filed in the database; no cut-off is given here.

Usually pIC50 stands for the IC50 on a negative log10 scale, so that one unit is a factor of ten. Low values mean a large IC50, high ones a small IC50.

The subject of assay [1] is MRC5. As to the kind of experiment: Cytotoxicity against human diploid embryotic cell line (MRC-5). In kind it is functional, cell-based.
The subject of assay [2] is Aspergillus fumigatus. As to the kind of experiment: Compound was tested for the antifungal activity against Aspergillus fumigatus (R-1301) at a concentration of 10 ug/disk; zone of inhibition was measured after 48 hr incubation. In kind it is functional.
Assay [3] deals with Aspergillus fumigatus. Briefly: Compound was tested for the antifungal activity against Aspergillus fumigatus (R-1301) at a concentration of 0.1 ug/disk; zone of inhibition was measured after 48 hr incubation. In kind it is functional.
Assay [4] concerns Candida albicans. As to the kind of experiment: Compound was tested for the antifungal activity against Candida albicans (IFO1594) at a concentration of 0.1 ug/disk; zone of inhibition was measured after 48 hr incubation; +/- denotes slightly effective. In kind it is functional, organism-based.
Assay [5] has as its system Fusarium solani. As to the kind of experiment: Compound was tested for the antifungal activity against Fusarium solani (R-2800) at a concentration of 1 ug/disk; zone of inhibition was measured after 48 hr incubation; NE denotes not effective. Format: functional, organism-based.
Assay [6] concerns Penicillium citrinum. Briefly: Compound was tested for the antifungal activity against Penicillium citrinum (R-3703) at a concentration of 1 ug/disk; zone of inhibition was measured after 48 hr incubation. In kind it is functional.
The subject of assay [7] is Saccharomyces cerevisiae. Briefly: Compound was tested for the antifungal activity against Saccharomyces cerevisiae (IAM4861) at a concentration of 1 ug/disk; zone of inhibition was measured after 48 hr incubation; incomplete inhibition observed. Format: functional.
Assay [8] has as its system Saccharomyces cerevisiae. Briefly: Compound was tested for the antifungal activity against Saccharomyces cerevisiae (IAM4861) at a concentration of 0.1 ug/disk; zone of inhibition was measured after 48 hr incubation; incomplete inhibition observed. Format: functional.
Assay [9] relates to Candida albicans. Briefly: Compound was tested for the antifungal activity against Candida albicans (IFO1594) at a concentration of 10 ug/disk; zone of inhibition was measured after 48 hr incubation; incomplete inhibition observed. In kind it is functional.
The subject of assay [10] is Saccharomyces cerevisiae. As to the kind of experiment: Compound was tested for the antifungal activity against Saccharomyces cerevisiae (IAM4861) at a concentration of 10 ug/disk; zone of inhibition was measured after 48 hr incubation; incomplete inhibition observed. Format: functional.
In assay [11] the test system is Penicillium citrinum. As to the kind of experiment: Compound was tested for the antifungal activity against Penicillium citrinum (R-3703) at a concentration of 0.1 ug/disk; zone of inhibition was measured after 48 hr incubation. In kind it is functional.
In assay [12] the test system is Aspergillus fumigatus. As to the kind of experiment: Compound was tested for the antifungal activity against Aspergillus fumigatus (R-1301) at a concentration of 1 ug/disk; zone of inhibition was measured after 48 hr incubation. In kind it is functional.
The test system of assay [13] is Candida albicans. Briefly: Compound was tested for the antifungal activity against Candida albicans (IFO1594) at a concentration of 1 ug/disk; zone of inhibition was measured after 48 h incubation; incomplete inhibition observed. Format: functional.
Assay [14] deals with Fusarium solani. As to the kind of experiment: Compound was tested for the antifungal activity against Fusarium solani (R-2800) at a concentration of 10 ug/disk; zone of inhibition was measured after 48 hr incubation; NE denotes not effective. In kind it is functional, organism-based.
In assay [15] the test system is Fusarium solani. Briefly: Compound was tested for the antifungal activity against Fusarium solani (R-2800) at a concentration of 0.1 ug/disk; zone of inhibition was measured after 48 hr incubation; NE denotes not effective. Format: functional, organism-based.
For assay [16], the system named is Penicillium citrinum. Briefly: Compound was tested for the antifungal activity against Penicillium citrinum (R-3703) at a concentration of 10 ug/disk; zone of inhibition was measured after 48 h incubation. In kind it is functional.
For assay [17], the system named is Aspergillus fumigatus. Briefly: Compound was tested for the antifungal activity against Aspergillus fumigatus (R-1301) at a concentration of 0.1 ug/disk; zone of inhibition was measured after 48 hr incubation; NE denotes not effective. Format: functional, organism-based.
In assay [18] the test system is Aspergillus fumigatus. Briefly: Compound was tested for the antifungal activity against Aspergillus fumigatus (R-1301) at a concentration of 1 ug/disk; zone of inhibition was measured after 48 hr incubation; +/- denotes slightly effective. Format: functional, organism-based.
Assay [19] has as its system Penicillium citrinum. Briefly: Compound was tested for the antifungal activity against Penicillium citrinum (R-3703) at a concentration of 0.1 ug/disk; zone of inhibition was measured after 48 hr incubation; +/- denotes slightly effective. In kind it is functional, organism-based.
The test system of assay [20] is Saccharomyces cerevisiae. Briefly: Compound was tested for the antifungal activity against Saccharomyces cerevisiae (IAM4861) at a concentration of 10 ug/disk; zone of inhibition was measured after 48 hr incubation. In kind it is functional.
Assay [21] deals with Candida albicans. As to the kind of experiment: Compound was tested for the antifungal activity against Candida albicans (IFO1594) at a concentration of 10 ug/disk; zone of inhibition was measured after 48 hr incubation. In kind it is functional.
Assay [22] has as its system Saccharomyces cerevisiae. Briefly: Compound was tested for the antifungal activity against Saccharomyces cerevisiae (IAM4861) at a concentration of 1 ug/disk; zone of inhibition was measured after 48 hr incubation. In kind it is functional.
Assay [23] has as its system Penicillium citrinum. Briefly: Compound was tested for the antifungal activity against Penicillium citrinum (R-3703) at a concentration of 1 ug/disk; zone of inhibition was measured after 48 hr incubation; NE denotes not effective. Format: functional, organism-based.
Assay [24] concerns Fusarium solani. As to the kind of experiment: Compound was tested for the antifungal activity against Fusarium solani (R-2800) at a concentration of 10 ug/disk; zone of inhibition was measured after 48 hr incubation; incomplete inhibition observed. In kind it is functional.
Assay [25] relates to Candida albicans. Briefly: Compound was tested for the antifungal activity against Candida albicans (IFO1594) at a concentration of 1 ug/disk; zone of inhibition was measured after 48 hr incubation. In kind it is functional.
For assay [26], the system named is Penicillium citrinum. Briefly: Compound was tested for the antifungal activity against Penicillium citrinum (R-3703) at a concentration of 0.1 ug/disk; zone of inhibition was measured after 48 hr incubation; NE denotes not effective. In kind it is functional, organism-based.
Assay [27] deals with Fusarium solani. Briefly: Compound was tested for the antifungal activity against Fusarium solani (R-2800) at a concentration of 1 ug/disk; zone of inhibition was measured after 48 hr incubation; incomplete inhibition observed. Format: functional.
Assay [28] relates to Candida albicans. As to the kind of experiment: Compound was tested for the antifungal activity against Candida albicans (IFO1594) at a concentration of 0.1 ug/disk; zone of inhibition was measured after 48 h incubation; NE denotes not effective. In kind it is functional, organism-based.
Assay [29] has as its system Penicillium citrinum. Briefly: Compound was tested for the antifungal activity against Penicillium citrinum (R-3703) at a concentration of 10 ug/disk; the diameter of each inhibition zone was measured after 48 hr incubation; NE denotes not effective. In kind it is functional, organism-based.
The test system of assay [30] is Saccharomyces cerevisiae. As to the kind of experiment: Compound was tested for the antifungal activity against Saccharomyces cerevisiae (IAM4861) at a concentration of 0.1 ug/disk; zone of inhibition was measured after 48 hr incubation; +/- denotes slightly effective. In kind it is functional, organism-based.
In assay [31] the test system is Aspergillus fumigatus. As to the kind of experiment: Compound was tested for the antifungal activity against Aspergillus fumigatus (R-1301) at a concentration of 0.1 ug/disk; zone of inhibition was measured after 48 hr incubation; +/- denotes slightly effective. In kind it is functional, organism-based.
The subject of assay [32] is MRC5. Briefly: Cytotoxicity against the human diploid embryotic cell line (MRC-5). In kind it is functional, cell-based.
For assay [33], the system named is Saccharomyces cerevisiae. As to the kind of experiment: Compound was tested for the antifungal activity against Saccharomyces cerevisiae (IAM4861) at a concentration of 0.1 ug/disk; zone of inhibition was measured after 48 hr incubation. Format: functional.

In assay [1] (mrc5), NYSTATIN [listing 1 of 2 here] gave a pIC50 of 4.47.
Consider `CO\C=C(C(=O)OC)/C(C)=C(\C=C\c1ccc(OC)cc1)OC`, for which the Diameter of inhibition zone in [2] is 29 mm; in assay [3], 4 mm; in assay [4] it was “Weak activity”; in [6], 23 mm; in assay [7], 36 mm; in [8] it was 28 mm. The Diameter of inhibition zone in assay [9] was determined as 33 mm; in assay [10], 42 mm; in [11], 9 mm; in assay [12], 18 mm; in assay [13] it was 27 mm; in assay [16] it was 29 mm. Also, the pIC50 in assay [1] (Homo sapiens, MRC5) is 4.46. Moreover, the “Diameter of inhibition zone” value in assay [5], in [14] and in [15] was “inactive” throughout.
On to `CO\C=C(C(=O)OC)/C(C)=C(\C=C\c1cccc(OC)c1)OC`, for which the Diameter of inhibition zone in assay [2] was 23 mm; in assay [4], “Weak activity”; in assay [6], 19 mm; in [7] it was 29 mm; in assay [8] it was 16 mm; in assay [9], 32 mm. The Diameter of inhibition zone in [10] is 35 mm; in assay [11], 8 mm; in [12], 9 mm; in [13], 27 mm; in assay [16], 25 mm. In assay [1] (Homo sapiens, MRC5), the pIC50 was 4.57. Further, the “Diameter of inhibition zone” value in assay [5], in assay [17], in [14] and in [15] was “inactive” each time.
`CO\C=C(C(=O)OC)/C(C)=C(\C=C\c1ccc2c(c1)OCO2)OC`: the Diameter of inhibition zone in assay [2] was 22 mm; in [4], “Weak activity”; in [6], 10 mm; in assay [7] it was 36 mm; in [18], “Weak activity”; in assay [8] it was 8 mm. Moreover, the Diameter of inhibition zone in assay [9] is 32 mm; in assay [10], 42 mm; in assay [19], “Weak activity”; in assay [13] it was 22 mm; in assay [16] it was 18 mm. The molecule further showed a pIC50 in [1] (Homo sapiens, MRC5) of less than 4.00. The “Diameter of inhibition zone” value in assay [5], in assay [17], in assay [14] and in assay [15] was “inactive” throughout.
Take `CO\C=C(C(=O)OC)/C(C)=C(\C=C\c1ccc(OC)c(OC)c1)OC`: the Diameter of inhibition zone in assay [2] is 20 mm; in [4], “Weak activity”; in assay [6], 13 mm; in [7] it was 38 mm; in assay [18], “Weak activity”; in assay [8], 20 mm. Further, the Diameter of inhibition zone was 34 mm in assay [9]; 43 mm in [10]; “Weak activity” in assay [19]; 26 mm in [13]; 22 mm in assay [16]. Besides, in assay [1] (Homo sapiens, MRC5), the pIC50 is 4.92. In addition, the “Diameter of inhibition zone” value in assay [5], in [17], in assay [14] and in assay [15] was “inactive” throughout.
In the case of NYSTATIN [listing 2 of 2 here], the Diameter of inhibition zone was determined as 14 mm in assay [2], 18 mm in assay [20], 16 mm in assay [21] and 12 mm in assay [16]. Moreover, the “Diameter of inhibition zone” value in assay [14] was “inactive”.
As to `C=CC(C)(C)O[C@H]1COc2ccc(/C=C/C(OC)=C(C)\C(=C/OC)C(=O)OC)cc2OC1(C)C`, the Diameter of inhibition zone worked out at 20 mm in [22]; 10 mm in [2]; 25 mm in assay [24]; 17 mm in [25]; 19 mm in assay [27]; 25 mm in assay [20]. The Diameter of inhibition zone in assay [21] is 22 mm; in assay [30], “Weak activity”; in assay [31] it was “Weak activity”; in assay [12], 8 mm. Besides, the “Diameter of inhibition zone” value in assay [23], in assay [26], in [28], in [29] and in assay [15] was “inactive” in each case. Besides, in assay [1] (Homo sapiens, MRC5), the pIC50 is 6.44.
Turning to `CO\C=C(C(=O)OC)/C(C)=C(\C=C\c1ccccc1)OC` [9-METHOXYSTROBILURIN A], the Diameter of inhibition zone in [2] is 31 mm; in assay [4], “incomplete inhibition”; in assay [6], 18 mm; in assay [7] it was 40 mm; in assay [8], 17 mm; in assay [9] it was 36 mm. Besides, the Diameter of inhibition zone in assay [10] was 49 mm; in [31], “slightly effective”; in assay [11], 4 mm; in assay [12] it was 15 mm; in assay [13] it was 28 mm; in assay [16] it was 28 mm. The “Diameter of inhibition zone” value in assay [5], in assay [14] and in assay [15] was “inactive” in each case. The negative logarithm of the IC50 (pIC50) in assay [32] is 4.47.
Consider `CO\C=C(C(=O)OC)/C(C)=C(\C=C\c1ccc2ccccc2c1)OC`, for which the Diameter of inhibition zone in assay [22] is 30 mm; in assay [33], 12 mm; in [2] it was 18 mm; in [3] it was 4 mm; in assay [24], 13 mm; in [4], “Weak activity”. Moreover, the Diameter of inhibition zone in [6] amounted to 14 mm; in assay [25], 16 mm; in assay [27], 14 mm; in assay [20], 37 mm; in assay [21], 26 mm; in assay [12], 13 mm. The results for the “Diameter of inhibition zone” value in assay [19] and in assay [16] were “Weak activity” and 19 mm, respectively. In assay [1] (Homo sapiens, MRC5), this molecule had a pIC50 of less than 4.00. Also, the “Diameter of inhibition zone” value in assay [15] was “inactive”.
